Reference: article PMC7736581, “Activation of the IRE1 RNase through remodeling of the kinase front pocket by ATP-competitive ligands” (Nature Communications, 2020)

Tests used:
Assay in all cases: biochemical
Parameters in all cases: Invitrogen kinase panel: Z'Lyte activity (ATP at Km) or LanthaScreen competitive ATP-site binding, percent inhibition
[1] = target: T1, ARK5 (Homo sapiens, UniProt O60285)
T1 construct: gene NUAK1

[2] = target: CAMKK1 (Homo sapiens, UniProt Q8N5S9)
[3] = target: T2, CK2_alpha1 (Homo sapiens, UniProt P68400)
T2 construct: gene CSNK2A1
T2 sequence (P68400 whole entry): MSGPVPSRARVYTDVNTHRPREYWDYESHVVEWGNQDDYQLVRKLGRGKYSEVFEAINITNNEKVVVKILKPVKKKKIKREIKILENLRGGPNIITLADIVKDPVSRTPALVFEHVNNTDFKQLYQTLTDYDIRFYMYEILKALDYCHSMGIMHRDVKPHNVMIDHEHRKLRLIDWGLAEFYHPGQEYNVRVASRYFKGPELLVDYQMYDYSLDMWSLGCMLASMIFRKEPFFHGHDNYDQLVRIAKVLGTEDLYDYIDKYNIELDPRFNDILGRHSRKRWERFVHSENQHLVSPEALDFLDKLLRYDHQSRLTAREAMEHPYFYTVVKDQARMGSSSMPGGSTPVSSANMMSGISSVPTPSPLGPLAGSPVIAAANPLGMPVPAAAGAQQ

[4] = target: T3, DCAMKL2 (Homo sapiens, UniProt Q8N568)
T3 construct: gene DCLK2

[5] = target: DYRK3 (Homo sapiens, UniProt O43781)
[6] = target: EGFR (Homo sapiens, UniProt P00533)
[7] = target: EGFR(T790M,L858R) (Homo sapiens, UniProt P00533, L858R/T790M)
Chain of EGFR(T790M,L858R) (P00533 whole entry T790M/L858R): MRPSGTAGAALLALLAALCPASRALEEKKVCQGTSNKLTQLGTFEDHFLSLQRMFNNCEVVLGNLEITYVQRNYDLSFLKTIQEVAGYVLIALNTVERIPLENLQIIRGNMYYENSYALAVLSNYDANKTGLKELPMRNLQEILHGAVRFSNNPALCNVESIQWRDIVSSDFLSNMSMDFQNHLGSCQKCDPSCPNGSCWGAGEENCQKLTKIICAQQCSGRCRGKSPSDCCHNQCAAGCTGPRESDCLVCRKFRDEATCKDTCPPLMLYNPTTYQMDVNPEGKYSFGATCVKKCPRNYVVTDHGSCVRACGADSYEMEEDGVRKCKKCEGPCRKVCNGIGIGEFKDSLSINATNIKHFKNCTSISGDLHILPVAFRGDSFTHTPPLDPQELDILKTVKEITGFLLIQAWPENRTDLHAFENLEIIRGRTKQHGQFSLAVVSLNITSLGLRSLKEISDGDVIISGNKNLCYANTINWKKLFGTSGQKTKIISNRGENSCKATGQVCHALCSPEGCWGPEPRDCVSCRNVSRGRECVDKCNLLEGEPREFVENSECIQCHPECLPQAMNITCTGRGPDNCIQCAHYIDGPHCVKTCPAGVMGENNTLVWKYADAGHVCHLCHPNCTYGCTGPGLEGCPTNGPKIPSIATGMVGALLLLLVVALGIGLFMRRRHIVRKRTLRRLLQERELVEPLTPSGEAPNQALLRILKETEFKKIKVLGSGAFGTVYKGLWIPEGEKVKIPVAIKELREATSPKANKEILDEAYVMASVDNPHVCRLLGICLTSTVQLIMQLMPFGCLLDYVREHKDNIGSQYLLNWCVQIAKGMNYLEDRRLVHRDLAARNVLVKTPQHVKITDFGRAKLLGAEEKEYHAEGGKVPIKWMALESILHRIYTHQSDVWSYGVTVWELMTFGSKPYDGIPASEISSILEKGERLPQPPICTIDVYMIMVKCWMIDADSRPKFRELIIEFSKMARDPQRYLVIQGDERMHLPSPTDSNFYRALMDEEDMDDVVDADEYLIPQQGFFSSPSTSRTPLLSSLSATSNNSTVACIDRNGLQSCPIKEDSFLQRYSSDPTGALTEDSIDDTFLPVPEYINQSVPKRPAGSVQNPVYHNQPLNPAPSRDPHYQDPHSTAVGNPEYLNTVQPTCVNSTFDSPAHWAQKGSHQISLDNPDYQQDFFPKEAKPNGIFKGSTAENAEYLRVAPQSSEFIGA

[8] = target: Fes (Homo sapiens, UniProt P07332)
[9] = target: GRK6 (Homo sapiens, UniProt P43250)
Chain of GRK6 (P43250 whole entry): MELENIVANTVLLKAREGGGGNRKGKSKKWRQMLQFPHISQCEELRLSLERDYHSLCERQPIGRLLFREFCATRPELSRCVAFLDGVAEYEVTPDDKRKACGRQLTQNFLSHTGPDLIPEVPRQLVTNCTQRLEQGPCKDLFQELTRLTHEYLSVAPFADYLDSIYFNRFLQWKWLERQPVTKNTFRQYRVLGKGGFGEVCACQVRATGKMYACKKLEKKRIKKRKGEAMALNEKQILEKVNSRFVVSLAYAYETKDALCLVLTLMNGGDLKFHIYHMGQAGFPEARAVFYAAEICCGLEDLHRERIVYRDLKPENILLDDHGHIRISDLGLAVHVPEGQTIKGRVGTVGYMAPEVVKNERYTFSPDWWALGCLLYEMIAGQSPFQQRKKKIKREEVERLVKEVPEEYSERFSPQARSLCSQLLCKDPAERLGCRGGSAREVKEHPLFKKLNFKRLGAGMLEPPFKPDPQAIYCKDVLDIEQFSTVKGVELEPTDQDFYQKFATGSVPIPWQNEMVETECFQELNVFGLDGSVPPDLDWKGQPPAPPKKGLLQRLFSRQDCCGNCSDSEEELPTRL

[10] = target: IGF1R (Homo sapiens, UniProt P08069)
[11] = target: T4, IRR (Homo sapiens, UniProt P14616)
T4 construct: gene INSRR

[12] = target: LIMK1 (Homo sapiens, UniProt P53667)
[13] = target: MAPKAPK3 (Homo sapiens, UniProt Q16644)
[14] = target: T5, MKK6 (Homo sapiens, UniProt P52564)
T5 construct: gene MAP2K6

[15] = target: MKNK1 (Homo sapiens, UniProt Q9BUB5)
Chain of MKNK1 (Q9BUB5 whole entry): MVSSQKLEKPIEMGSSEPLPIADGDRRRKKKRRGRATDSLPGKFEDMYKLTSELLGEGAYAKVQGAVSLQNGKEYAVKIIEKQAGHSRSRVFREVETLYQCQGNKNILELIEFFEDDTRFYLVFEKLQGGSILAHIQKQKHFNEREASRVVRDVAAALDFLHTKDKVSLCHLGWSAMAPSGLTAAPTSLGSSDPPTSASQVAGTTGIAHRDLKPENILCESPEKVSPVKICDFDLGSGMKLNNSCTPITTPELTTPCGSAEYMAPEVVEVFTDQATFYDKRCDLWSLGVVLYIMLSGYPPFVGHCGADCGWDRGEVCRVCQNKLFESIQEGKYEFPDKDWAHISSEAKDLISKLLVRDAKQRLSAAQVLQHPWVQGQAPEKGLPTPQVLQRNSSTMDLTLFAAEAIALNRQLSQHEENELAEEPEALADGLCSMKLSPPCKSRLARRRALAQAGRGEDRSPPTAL

[16] = target: Mink1 (Homo sapiens, UniProt Q8N4C8)
[17] = target: T6, PKC_alpha (Homo sapiens, UniProt P17252)
T6 construct: gene PRKCA

[18] = target: PrKX (Homo sapiens, UniProt P51817)
Chain of PrKX (P51817 whole entry): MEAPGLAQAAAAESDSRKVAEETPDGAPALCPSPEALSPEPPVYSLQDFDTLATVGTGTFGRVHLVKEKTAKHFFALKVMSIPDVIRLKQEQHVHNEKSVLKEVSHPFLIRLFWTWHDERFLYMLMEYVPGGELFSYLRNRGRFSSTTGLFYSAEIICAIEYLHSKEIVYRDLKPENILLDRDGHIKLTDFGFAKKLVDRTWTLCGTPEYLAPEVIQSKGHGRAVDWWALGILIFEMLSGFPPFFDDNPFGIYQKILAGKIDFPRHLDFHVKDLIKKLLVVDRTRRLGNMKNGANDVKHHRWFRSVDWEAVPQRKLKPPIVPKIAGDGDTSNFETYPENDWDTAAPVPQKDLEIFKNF

[19] = target: ROCK2 (Homo sapiens, UniProt O75116)
Chain of ROCK2 (O75116 whole entry): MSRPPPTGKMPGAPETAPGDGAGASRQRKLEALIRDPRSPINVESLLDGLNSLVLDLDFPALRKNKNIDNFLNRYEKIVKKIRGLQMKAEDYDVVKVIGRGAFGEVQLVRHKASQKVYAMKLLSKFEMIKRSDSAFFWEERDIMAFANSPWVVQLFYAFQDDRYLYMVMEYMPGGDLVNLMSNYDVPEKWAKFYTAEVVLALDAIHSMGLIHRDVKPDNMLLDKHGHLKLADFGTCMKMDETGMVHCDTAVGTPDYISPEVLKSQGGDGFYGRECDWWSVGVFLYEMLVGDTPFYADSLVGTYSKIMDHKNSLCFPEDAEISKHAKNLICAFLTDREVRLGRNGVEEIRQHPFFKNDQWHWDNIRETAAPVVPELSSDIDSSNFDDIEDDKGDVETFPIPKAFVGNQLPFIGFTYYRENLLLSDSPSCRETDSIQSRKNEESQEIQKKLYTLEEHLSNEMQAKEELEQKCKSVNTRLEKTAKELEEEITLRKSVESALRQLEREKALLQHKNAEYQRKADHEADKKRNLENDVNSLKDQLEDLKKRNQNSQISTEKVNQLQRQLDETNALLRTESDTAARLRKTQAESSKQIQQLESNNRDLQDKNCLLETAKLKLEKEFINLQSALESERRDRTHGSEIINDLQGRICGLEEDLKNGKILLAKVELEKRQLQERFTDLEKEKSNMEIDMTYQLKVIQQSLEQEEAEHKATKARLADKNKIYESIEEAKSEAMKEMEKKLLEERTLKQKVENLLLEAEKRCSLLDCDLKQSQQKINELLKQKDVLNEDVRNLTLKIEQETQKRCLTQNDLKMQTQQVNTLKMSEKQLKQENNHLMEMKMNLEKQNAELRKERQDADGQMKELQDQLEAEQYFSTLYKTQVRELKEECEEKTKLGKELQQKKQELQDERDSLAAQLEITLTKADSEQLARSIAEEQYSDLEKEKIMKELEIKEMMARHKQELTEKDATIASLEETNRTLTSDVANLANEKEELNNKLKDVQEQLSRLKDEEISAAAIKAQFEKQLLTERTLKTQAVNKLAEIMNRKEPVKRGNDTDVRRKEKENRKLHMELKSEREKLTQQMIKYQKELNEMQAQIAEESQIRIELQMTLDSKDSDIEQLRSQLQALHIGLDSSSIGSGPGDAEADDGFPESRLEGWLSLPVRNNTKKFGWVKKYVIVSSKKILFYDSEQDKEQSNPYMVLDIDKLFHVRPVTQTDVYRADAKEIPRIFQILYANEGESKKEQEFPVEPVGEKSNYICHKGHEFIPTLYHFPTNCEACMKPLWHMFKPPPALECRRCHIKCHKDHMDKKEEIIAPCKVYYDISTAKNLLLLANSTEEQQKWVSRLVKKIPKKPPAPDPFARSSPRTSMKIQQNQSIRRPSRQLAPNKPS

[20] = target: SIK2 (Homo sapiens, UniProt Q9H0K1)
[21] = target: T7, TAO2 (Homo sapiens, UniProt Q9UL54)
T7 construct: gene TAOK2

[22] = target: TEC (Homo sapiens, UniProt P42680)
[23] = target: WEE1 (Homo sapiens, UniProt P30291)
[24] = target: T8, p38_beta (Homo sapiens, UniProt Q15759)
T8 construct: gene MAPK11
T8 sequence (Q15759 whole entry): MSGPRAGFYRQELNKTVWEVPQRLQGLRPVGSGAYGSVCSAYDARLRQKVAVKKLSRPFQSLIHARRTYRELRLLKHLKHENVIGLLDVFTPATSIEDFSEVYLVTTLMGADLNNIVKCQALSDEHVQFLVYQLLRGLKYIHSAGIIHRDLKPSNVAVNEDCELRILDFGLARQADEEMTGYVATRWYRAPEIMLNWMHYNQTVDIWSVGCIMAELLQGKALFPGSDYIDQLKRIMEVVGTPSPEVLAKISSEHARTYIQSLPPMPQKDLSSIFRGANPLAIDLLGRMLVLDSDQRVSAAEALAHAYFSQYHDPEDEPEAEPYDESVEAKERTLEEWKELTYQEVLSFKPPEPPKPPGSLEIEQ

[25] = target: T9, p38_gamma (Homo sapiens, UniProt P53778)
T9 construct: gene MAPK12

## CC#CC(=O)Nc1cccc2c(Oc3ncccc3-c3ccnc(N[C@H]4CCCNC4)n3)c(C)ccc12 [G-7658]
[1]
  inhibition at 1 µM: 8%
[2]
  inhibition at 1 µM: 5.5%
[3]
  inhibition at 1 µM: 0%
[4]
  inhibition at 1 µM: 2%
[5]
  inhibition at 1 µM: 1%
[6]
  inhibition at 1 µM: -9%
[7]
  inhibition at 1 µM: 4%
[8]
  inhibition at 1 µM: 3.5%
[9]
  inhibition at 1 µM: 1.5%
[10]
  inhibition at 1 µM: 5.5%
[11]
  inhibition at 1 µM: 0%
[12]
  inhibition at 1 µM: 15%
[13]
  inhibition at 1 µM: 8%
[14]
  inhibition at 1 µM: -2%
[15]
  inhibition at 1 µM: -1%
[16]
  inhibition at 1 µM: 4%
[17]
  inhibition at 1 µM: 4%
[18]
  inhibition at 1 µM: -1.5%
[19]
  inhibition at 1 µM: -0.5%
[20]
  inhibition at 1 µM: 6%
[21]
  inhibition at 1 µM: 74%
[22]
  inhibition at 1 µM: 3%
[23]
  inhibition at 1 µM: -0.5%
[24]
  inhibition at 1 µM: 63.5%
[25]
  inhibition at 1 µM: 16.5%

## CCOC(=O)Nc1cccc2c(Oc3ncccc3-c3ccnc(N[C@H]4CCCNC4)n3)c(C)ccc12 [G-1749]
[1]
  inhibition at 1 µM: 12%
[2]
  inhibition at 1 µM: 3.5%
[3]
  inhibition at 1 µM: 0.5%
[4]
  inhibition at 1 µM: 3%
[5]
  inhibition at 1 µM: 3.5%
[6]
  inhibition at 1 µM: -6%
[7]
  inhibition at 1 µM: 2.5%
[8]
  inhibition at 1 µM: 5%
[9]
  inhibition at 1 µM: -1%
[10]
  inhibition at 1 µM: 6.5%
[11]
  inhibition at 1 µM: -0.5%
[12]
  inhibition at 1 µM: 4.5%
[13]
  inhibition at 1 µM: 12.5%
[14]
  inhibition at 1 µM: -3.5%
[15]
  inhibition at 1 µM: 1.5%
[16]
  inhibition at 1 µM: 25%
[17]
  inhibition at 1 µM: 1.5%
[18]
  inhibition at 1 µM: -0.5%
[19]
  inhibition at 1 µM: 1%
[20]
  inhibition at 1 µM: -16.5%
[21]
  inhibition at 1 µM: 72.5%
[22]
  inhibition at 1 µM: 4%
[23]
  inhibition at 1 µM: -5%
[24]
  inhibition at 1 µM: 100%
[25]
  inhibition at 1 µM: 18%
